Source: PubChem BioAssay AID1963874 (Molecular Pharmacology Branch, DTP, NCI, 2024)

System: 253994-281-T-J1-PDC KRAS-mutant spheroids with HUVEC/MSC, viability
Experiment: Anticancer human tumor 253994-281-T-J1-PDC patient-derived colorectal carcinoma cell line growth inhibition [KRAS2]
Details: for viability, T/C: stronger effect = lower value
Outline: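 Combination screen of spheroid viability in tumor-cell co-cultures with endothelial (HUVEC) and mesenchymal stem cell stroma. Each agent was tested in half-log dilutions, topping at clinical Cmax or at 10 microM without a known Cmax.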

[1] = curve of first compound, second compound 0.1 µM
[2] = curve of first compound, second compound 0.316 µM
[3] = curve of first compound, second compound 1 µM
[4] = curve of first compound, second compound 3.16 µM
[5] = curve of first compound, second compound 10 µM
[6] = second compound 0.1 µM, first compound 0.0316 µM
[7] = second compound 0.1 µM, first compound 0.1 µM
[8] = second compound 0.1 µM, first compound 0.316 µM
[9] = second compound 0.1 µM, first compound 1 µM
[10] = second compound 0.1 µM, first compound 3.16 µM
[11] = second compound 0.316 µM, first compound 0.0316 µM
[12] = second compound 0.316 µM, first compound 0.1 µM
[13] = second compound 0.316 µM, first compound 0.316 µM
[14] = second compound 0.316 µM, first compound 1 µM
[15] = second compound 0.316 µM, first compound 3.16 µM
[16] = second compound 1 µM, first compound 0.0316 µM
[17] = second compound 1 µM, first compound 0.1 µM
[18] = second compound 1 µM, first compound 0.316 µM
[19] = second compound 1 µM, first compound 1 µM
[20] = second compound 1 µM, first compound 3.16 µM
[21] = second compound 3.16 µM, first compound 0.0316 µM
[22] = second compound 3.16 µM, first compound 0.1 µM
[23] = second compound 3.16 µM, first compound 0.316 µM
[24] = second compound 3.16 µM, first compound 1 µM
[25] = second compound 3.16 µM, first compound 3.16 µM
[26] = second compound 10 µM, first compound 0.0316 µM
[27] = second compound 10 µM, first compound 0.1 µM
[28] = second compound 10 µM, first compound 0.316 µM
[29] = second compound 10 µM, first compound 1 µM
[30] = second compound 10 µM, first compound 3.16 µM
[31] = second compound 0.1 µM, first compound 10 µM
[32] = second compound 0.316 µM, first compound 10 µM
[33] = second compound 1 µM, first compound 10 µM
[34] = second compound 3.16 µM, first compound 10 µM
[35] = second compound 10 µM, first compound 10 µM
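Note: spheroids exposed to agents for seven days before readout.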
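Throughout, for viability, T/C: percent of DMSO vehicle control viability.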

SMILES | IC50 [1] [µM] | IC50 [2] [µM] | IC50 [3] [µM] | IC50 [4] [µM] | viability, T/C [6] [%] | viability, T/C [7] [%] | viability, T/C [8] [%] | viability, T/C [9] [%] | viability, T/C [10] [%] | viability, T/C [11] [%] | viability, T/C [12] [%] | viability, T/C [13] [%] | viability, T/C [14] [%] | viability, T/C [15] [%] | viability, T/C [16] [%] | viability, T/C [17] [%] | viability, T/C [18] [%] | viability, T/C [19] [%] | viability, T/C [20] [%] | viability, T/C [21] [%] | also measured
CC1COCCN1c1cc(-c2ccnn2C)c2ccnc(-c3ccn[nH]3)c2n1 (centres undefined) + COc1cc2nc(C)nc(NC(C)c3cc(N)cc(C(F)(F)F)c3)c2cc1OC1CCOC1 | > 3.16 | 0.169 | 0.151 | 0.0996 | 72.8 | 65.3 | 47.9 | 52.5 | 55.1 | 83.2 | 55.2 | 39.1 | 37.6 | 55.6 | 74.8 | 56.5 | 35 | 40.4 | 54.5 | 82.5 | IC50 [5]: 0.0962 µM; viability, T/C (second compound 0.1 µM, first compound 0.01 µM): 95.2%; viability, T/C (second compound 0.316 µM, first compound 0.01 µM): 88.4%; viability, T/C (second compound 1 µM, first compound 0.01 µM): 92.5%; viability, T/C (second compound 3.16 µM, first compound 0.01 µM): 80.6%; viability, T/C [22]: 49.9%; viability, T/C [23]: 37.2%; viability, T/C [24]: 39%; viability, T/C [25]: 49.2%; viability, T/C (second compound 10 µM, first compound 0.01 µM): 75.7%; viability, T/C [26]: 74.6%; viability, T/C [27]: 49.2%; viability, T/C [28]: 31.8%; viability, T/C [29]: 41%; viability, T/C [30]: 42.4%
CC(C)NCC(C(=O)N1CCN(c2ncnc3c2C(C)CC3O)CC1)c1ccc(Cl)cc1 (centres undefined) | – | – | – | – | – | – | – | – | – | – | – | – | – | – | – | – | – | – | – | – | viability, T/C (compound 0.0316 µM): 102% [middle of 5 runs]; viability, T/C (compound 0.1 µM): 107% [middle of 5 runs]; viability, T/C (compound 1 µM): 97.2% [middle of 5 runs]; viability, T/C (compound 10 µM): 89.9% [middle of 5 runs]; IC50 (curve of compound): > 10 µM
CCNC(=O)CC1N=C(c2ccc(Cl)cc2)c2cc(OC)ccc2-n2c(C)nnc21 (centres undefined) + COc1cc2nc(C)nc(NC(C)c3cc(N)cc(C(F)(F)F)c3)c2cc1OC1CCOC1 | > 10 | > 10 | 7.76 | 5.93 | 99 | 93.9 | 78.1 | 76.5 | 70.5 | 87.5 | 97.6 | 77.9 | 68.4 | 73 | 92.9 | 95.4 | 79.8 | 69.5 | 61 | 86.3 | IC50 [5]: 3.25 µM; viability, T/C [31]: 71.8%; viability, T/C [32]: 51.1%; viability, T/C [33]: 46.7%; viability, T/C [22]: 89.1%; viability, T/C [23]: 78.5%; viability, T/C [24]: 70.3%; viability, T/C [25]: 52.7%; viability, T/C [34]: 47.2%; viability, T/C [26]: 82.6%; viability, T/C [27]: 83.2%; viability, T/C [28]: 87.1%; viability, T/C [29]: 62.9%; viability, T/C [30]: 53.4%; viability, T/C [35]: 31.6%
COc1cc2nccc(Oc3ccc(NC(=O)C4(C(=O)Nc5ccc(F)cc5)CC4)cc3)c2cc1OC + C=CC(=O)N1CCN(c2nc(=O)n(-c3c(C)ccnc3C(C)C)c3nc(-c4c(O)cccc4F)c(F)cc23)C(C)C1 | > 10 | > 10 | > 10 | > 10 | 108 | 116 | 102 | 102 | 101 | 109 | 116 | 101 | 107 | 96.3 | 108 | 112 | 120 | 84.5 | 89.8 | 107 | IC50 [5]: > 10 µM; viability, T/C [31]: 71.7%; viability, T/C [32]: 84.6%; viability, T/C [33]: 85.2%; viability, T/C [22]: 101%; viability, T/C [23]: 100%; viability, T/C [24]: 90.2%; viability, T/C [25]: 102%; viability, T/C [34]: 59.3%; viability, T/C [26]: 101%; viability, T/C [27]: 109%; viability, T/C [28]: 87.4%; viability, T/C [29]: 99.2%; viability, T/C [30]: 81.3%; viability, T/C [35]: 61.7%
COc1cc2nc(C)nc(NC(C)c3cc(N)cc(C(F)(F)F)c3)c2cc1OC1CCOC1 (centres undefined) | – | – | – | – | – | – | – | – | – | – | – | – | – | – | – | – | – | – | – | – | viability, T/C (compound 0.316 µM): 86.9% [middle of 17 runs]; IC50 (compound alone, run of 08/19/2021): > 10 µM; IC50 (compound alone, run of 08/26/2021): > 10 µM; IC50 (compound alone, run of 09/02/2021): > 10 µM
CC1(C)CCC(CN2CCN(c3ccc(C(=O)NS(=O)(=O)c4ccc(NCC5CCOCC5)c([N+](=O)[O-])c4)c(Oc4cnc5[nH]ccc5c4)c3)CC2)=C(c2ccc(Cl)cc2)C1 + C=CC(=O)N1CCN(c2nc(OCC3CCCN3C)nc3c2CCN(c2cccc4cccc(C)c24)C3)CC1CC#N | 6.52 | 8.92 | 4.9 | < 0.0316 | 96.9 | 89 | 87.4 | 90.2 | 64.8 | 102 | 99.2 | 95.6 | 92.8 | 87.1 | 83.6 | 94.5 | 91.7 | 79.3 | 64.3 | 18.6 | IC50 (curve of first compound, second compound 0.0316 µM): > 10 µM; viability, T/C (second compound 0.0316 µM, first compound 0.0316 µM): 110%; viability, T/C (second compound 0.0316 µM, first compound 0.1 µM): 98.6%; viability, T/C (second compound 0.0316 µM, first compound 0.316 µM): 102%; viability, T/C (second compound 0.0316 µM, first compound 1 µM): 90.6%; viability, T/C (second compound 0.0316 µM, first compound 3.16 µM): 84.5%; viability, T/C (second compound 0.0316 µM, first compound 10 µM): 56.7%; viability, T/C [31]: 41.2%; viability, T/C [32]: 45.7%; viability, T/C [33]: 27.8%; viability, T/C [22]: 25.2%; viability, T/C [23]: 22%; viability, T/C [24]: 9.94%; viability, T/C [25]: 0.66%; viability, T/C [34]: 0.3%
Cn1nccc1Nc1nccc(-c2cc3c(s2)C(C)(C)N(CCN2CCOCC2)C3=O)n1 + CC1OCC2(CCN(c3cnc(Sc4ccnc(N)c4Cl)c(N)n3)CC2)C1N | 1.46 | 0.745 | 0.28 | 0.11 | 81.1 | 82.9 | 74.9 | 59 | 32.3 | 77 | 79.2 | 63.1 | 45.6 | 26 | 68.3 | 64.6 | 48.3 | 22.5 | 13.2 | 60.8 | IC50 [5]: < 0.0316 µM; viability, T/C [31]: 18.9%; viability, T/C [32]: 17.9%; viability, T/C [33]: 15%; viability, T/C [22]: 50.2%; viability, T/C [23]: 34.8%; viability, T/C [24]: 15.3%; viability, T/C [25]: 10%; viability, T/C [34]: 8.2%; viability, T/C [26]: 39.8%; viability, T/C [27]: 28.4%; viability, T/C [28]: 15.4%; viability, T/C [29]: 8.1%; viability, T/C [30]: 4.83%; viability, T/C [35]: 6.14%
CC(C)NCC(C(=O)N1CCN(c2ncnc3c2C(C)CC3O)CC1)c1ccc(Cl)cc1 (centres undefined) + CC1OCC2(CCN(c3cnc(Sc4ccnc(N)c4Cl)c(N)n3)CC2)C1N | > 10 | > 10 | > 10 | > 10 | 107 | 101 | 99.8 | 90.7 | 85.2 | 95.1 | 91 | 86.4 | 84.7 | 101 | 84.7 | 77.9 | 72.9 | 83.5 | 83 | 57.8 | IC50 [5]: < 0.0316 µM; viability, T/C [31]: 85.8%; viability, T/C [32]: 84.3%; viability, T/C [33]: 93%; viability, T/C [22]: 59.5%; viability, T/C [23]: 63.9%; viability, T/C [24]: 70.6%; viability, T/C [25]: 77.7%; viability, T/C [34]: 84.3%; viability, T/C [26]: 36.3%; viability, T/C [27]: 41%; viability, T/C [28]: 41.1%; viability, T/C [29]: 51.9%; viability, T/C [30]: 58%; viability, T/C [35]: 55%
